# Measured values taken from patent US20240058422A1, “GLUCAGON-LIKE PEPTIDE-1 RECEPTOR ANTAGONISTS” (INDIANA UNIVERSITY RESEARCH AND TECHNOLOGY CORPORATION, priority 2022, published 2024).
# Where two headings read alike, the source gives them in different places. Starred links: 1 amine or outer side, 2 acyl side, 3 side chain; linkers in the order of their positions; H or OH if unused. Non-standard residues stand in square brackets, D forms with d. Residues, ends and D or L forms follow the SMILES beside them. Groups on a side chain read outwards from the residue. *: point of attachment. C18 diacid = O=C(O)CCCCCCCCCCCCCCCCC(=O)*; γGlu = O=C(O)[C@H](CCC(=O)[*:2])N[*:1]; Palmitoyl = CCCCCCCCCCCCCCCC(=O)*; AEEA = NCCOCCOCC(=O)O; Aib = CC(C)(N)C(=O)O
# Tests used:
# [1] = target: GLP-1R (Homo sapiens, UniProt P43220); test: GLP-1 receptor-mediated cAMP induction, luciferase reporter gene antagonism assay; assay type: cell-based; set-up: host or cells: HEK 293; conditions: antagonism of 0.05 nM GLP-1, HEK 293 cells
# Experimental: GLP-1 Receptor-Mediated cAMP Induction The ability of peptides to stimulate or block cAMP induction at the GLP-1 receptor was examined by a luciferase-based reporter gene assay. Cotransfection of HEK 293 cells with the human GLP-1 receptor (Open Biosystems) and a cAMPinducible (cAMPresponsive element) luciferase gene constituted the cellular construct where receptor activation could be measured. Bioassays were performed by first serum depriving the cells for 16 h in 0.25% bovine growth serum (HyClone)-supplemented Dulbecco's modified Eagle's medium (Invitrogen) and then adding serial dilutions of the peptides over the appropriate concentration ranges in 96-well poly-D-lysine-coated plates (BD Biosciences). For antagonism assays, a constant concentration of GLP-1 (0.05 nM) was added to the assay plate after the diluted peptides. Incubation continued for 5 h at 37° C., 5% CO2 and was followed by the addition of an equivalent volume (100 μL) of LucLite luminescence substrate reagent (Perkin-Elmer). MicroBeta 1450 liquid scintillation counting (Perkin-Elmer) quantified the luminescence signal in counts per second (cps) after shaking the plate at 600 rpm for 3 min. Data was plotted using Origin software (OriginLab) and the effective concentration 50 (EC50) or inhibitory concentration 50 (IC50) was determined by sigmoidal fitting. Potency was determined by comparative analysis of relative EC50 or IC50 values. Each experiment was repeated at least three times with each sample assayed in duplicate.
# [2] = Solubility in buffer
# [3] = 80 mM ammonium bicarbonate buffer, pH 7.7
# [4] = Table 3, amino acid substitution variants of Jant4-K40, read-out: Bioactivity IC50
# [5] = Table 2, C16 linker variants of 9-40amide Jant4 K40[X], read-out: Biactivity IC50
# [6] = 80 mM ammonium bicarbonate buffer, pH 7.7, Solubility [mg/mL] 80 mM AmBicarb pH7.7, Table 2, 80 mM AmBicarb pH7.7
# Sequence of GLP-1R (P43220 24-463): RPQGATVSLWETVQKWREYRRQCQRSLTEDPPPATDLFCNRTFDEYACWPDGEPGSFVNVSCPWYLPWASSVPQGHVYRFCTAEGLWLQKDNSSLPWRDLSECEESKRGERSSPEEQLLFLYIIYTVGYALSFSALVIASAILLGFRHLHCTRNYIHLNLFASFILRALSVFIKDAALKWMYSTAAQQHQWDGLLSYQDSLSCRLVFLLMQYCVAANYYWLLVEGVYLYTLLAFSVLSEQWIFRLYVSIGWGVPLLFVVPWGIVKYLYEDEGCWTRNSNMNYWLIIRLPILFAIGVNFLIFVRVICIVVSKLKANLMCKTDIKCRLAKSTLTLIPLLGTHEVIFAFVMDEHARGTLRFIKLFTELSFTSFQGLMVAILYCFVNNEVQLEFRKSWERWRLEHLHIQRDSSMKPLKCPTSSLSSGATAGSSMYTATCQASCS
smiles,measurement,setting,value
CCCCCCCCCCCCCCCC(=O)NCCCC[C@H](NC(=O)[C@H](CO)NC(=O)[C@@H]1CCCN1C(=O)[C@@H]1CCCN1C(=O)[C@@H]1CCCN1C(=O)[C@H](C)NC(=O)CNC(=O)[C@H](CO)NC(=O)[C@H](CO)NC(=O)[C@@H]1CCCN1C(=O)CNC(=O)CNC(=O)[C@H](CCCCN)NC(=O)[C@@H](NC(=O)[C@H](CC(C)C)NC(=O)[C@H](Cc1c[nH]c2ccccc12)NC(=O)[C@H](C)NC(=O)[C@@H](NC(=O)[C@H](Cc1ccccc1)NC(=O)[C@H](CCC(=O)O)NC(=O)[C@H](CCCNC(=N)N)NC(=O)[C@@H](NC(=O)[C@H](C)NC(=O)[C@H](CCC(N)=O)NC(=O)C(C)(C)NC(=O)[C@H](CCC(=O)O)NC(=O)[C@H](CC(C)C)NC(=O)[C@H](Cc1ccc(O)cc1)NC(=O)[C@H](CO)NC(=O)[C@H](CO)NC(=O)[C@@H](NC(=O)[C@@H](N)CC(=O)O)C(C)C)C(C)C)[C@@H](C)CC)C(C)C)C(N)=O [compound 84] (H-DVSSYLE[Aib]QAVREFIAWLVKGGPSSGAPPPSK(Palmitoyl)-NH2),IC50,"[1]; Table 4, Aib variants of 9-40am Jant4 K40[C16], read-out: Bioactivity IC50",30 nM
same,solubility,[2]; [3],5.2 mg/mL
same,solubility,"[2]; PBS, pH 7.7, Solubility [mg/mL] PBS pH7.7, Table 4, PBS pH7.7",0.2 mg/mL
CCCCCCCCCCCCCCCC(=O)NCCCC[C@H](NC(=O)[C@H](CO)NC(=O)[C@@H]1CCCN1C(=O)[C@@H]1CCCN1C(=O)[C@@H]1CCCN1C(=O)[C@H](C)NC(=O)CNC(=O)[C@H](CO)NC(=O)[C@H](CO)NC(=O)[C@@H]1CCCN1C(=O)CNC(=O)CNC(=O)[C@H](CCCNC(=N)N)NC(=O)[C@@H](NC(=O)[C@H](CC(C)C)NC(=O)[C@H](Cc1c[nH]c2ccccc12)NC(=O)[C@H](CCC(=O)O)NC(=O)[C@@H](NC(=O)[C@H](Cc1ccccc1)NC(=O)[C@H](CCC(=O)O)NC(=O)[C@H](CCCNC(=N)N)NC(=O)[C@@H](NC(=O)[C@H](C)NC(=O)[C@H](CCC(=O)O)NC(=O)[C@H](CCC(=O)O)NC(=O)[C@H](CCC(=O)O)NC(=O)[C@H](CC(C)C)NC(=O)[C@H](Cc1ccc(O)cc1)NC(=O)[C@H](CO)NC(=O)[C@H](CO)NC(=O)[C@@H](NC(=O)[C@@H](N)CC(=O)O)C(C)C)C(C)C)[C@@H](C)CC)C(C)C)C(N)=O [compound 72] (H-DVSSYLEEEAVREFIEWLVRGGPSSGAPPPSK(Palmitoyl)-NH2; N-terminus assumed),IC50,[1]; [4],19 nM
same,solubility,[2]; [3],> 20 mg/mL
CC[C@H](C)[C@H](NC(=O)[C@H](Cc1ccccc1)NC(=O)[C@H](CCC(=O)O)NC(=O)[C@H](CCCNC(=N)N)NC(=O)[C@@H](NC(=O)[C@H](C)NC(=O)[C@H](CCC(N)=O)NC(=O)[C@H](CCC(=O)O)NC(=O)[C@H](CCC(=O)O)NC(=O)[C@H](CC(C)C)NC(=O)[C@H](Cc1ccc(O)cc1)NC(=O)[C@H](CO)NC(=O)[C@H](CO)NC(=O)[C@@H](NC(=O)[C@@H](N)CC(=O)O)C(C)C)C(C)C)C(=O)N[C@@H](C)C(=O)N[C@@H](Cc1c[nH]c2ccccc12)C(=O)N[C@@H](CC(C)C)C(=O)N[C@H](C(=O)N[C@@H](CCCCN)C(=O)NCC(=O)NCC(=O)N1CCC[C@H]1C(=O)N[C@@H](CO)C(=O)N[C@@H](CO)C(=O)NCC(=O)N[C@@H](C)C(=O)N1CCC[C@H]1C(=O)N1CCC[C@H]1C(=O)N1CCC[C@H]1C(=O)N[C@@H](CO)C(=O)N[C@@H](CCCCNC(=O)COCCOCCNC(=O)CC[C@H](NC(=O)CCCCCCCCCCCCCCCCC(=O)O)C(=O)O)C(N)=O)C(C)C [compound 68] (H-DVSSYLEEQAVREFIAWLVKGGPSSGAPPPSK([AEEA-γGlu-C18 diacid])-NH2; N-terminus assumed),IC50,[1]; [5],718 nM
same,solubility,[2]; [6],> 25 mg/mL
CCCCCCCCCCCCCCCC(=O)N[C@@H](CCC(=O)N[C@@H](CCC(=O)N[C@@H](CCC(=O)N[C@@H](CCC(=O)N[C@@H](CCC(=O)N[C@@H](CCC(=O)NCCCC[C@H](NC(=O)[C@H](CO)NC(=O)[C@@H]1CCCN1C(=O)[C@@H]1CCCN1C(=O)[C@@H]1CCCN1C(=O)[C@H](C)NC(=O)CNC(=O)[C@H](CO)NC(=O)[C@H](CO)NC(=O)[C@@H]1CCCN1C(=O)CNC(=O)CNC(=O)[C@H](CCCCN)NC(=O)[C@@H](NC(=O)[C@H](CC(C)C)NC(=O)[C@H](Cc1c[nH]c2ccccc12)NC(=O)[C@H](C)NC(=O)[C@@H](NC(=O)[C@H](Cc1ccccc1)NC(=O)[C@H](CCC(=O)O)NC(=O)[C@H](CCCNC(=N)N)NC(=O)[C@@H](NC(=O)[C@H](C)NC(=O)[C@H](CCC(N)=O)NC(=O)[C@H](CCC(=O)O)NC(=O)[C@H](CCC(=O)O)NC(=O)[C@H](CC(C)C)NC(=O)[C@H](Cc1ccc(O)cc1)NC(=O)[C@H](CO)NC(=O)[C@H](CO)NC(=O)[C@@H](NC(=O)[C@@H](N)CC(=O)O)C(C)C)C(C)C)[C@@H](C)CC)C(C)C)C(N)=O)C(=O)O)C(=O)O)C(=O)O)C(=O)O)C(=O)O)C(=O)O [compound 55] (H-DVSSYLEEQAVREFIAWLVKGGPSSGAPPPSK([γGlu-γGlu-γGlu-γGlu-γGlu-γGlu-Palmitoyl])-NH2; N-terminus assumed),IC50,[1]; [5],22 nM
same,solubility,[2]; [6],> 20 mg/mL
CC[C@H](C)[C@H](NC(=O)[C@H](Cc1ccccc1)NC(=O)[C@H](CCC(=O)O)NC(=O)[C@H](CCCNC(=N)N)NC(=O)[C@@H](NC(=O)[C@H](C)NC(=O)[C@H](CCC(N)=O)NC(=O)[C@H](CCC(=O)O)NC(=O)[C@H](CCC(=O)O)NC(=O)[C@H](CC(C)C)NC(=O)[C@H](Cc1ccc(O)cc1)NC(=O)[C@H](CO)NC(=O)[C@H](CO)NC(=O)[C@@H](NC(=O)[C@@H](N)CC(=O)O)C(C)C)C(C)C)C(=O)N[C@@H](C)C(=O)N[C@@H](Cc1c[nH]c2ccccc12)C(=O)N[C@@H](CC(C)C)C(=O)N[C@H](C(=O)N[C@@H](CCCCN)C(=O)NCC(=O)NCC(=O)N1CCC[C@H]1C(=O)N[C@@H](CO)C(=O)N[C@@H](CO)C(=O)NCC(=O)N[C@@H](C)C(=O)N1CCC[C@H]1C(=O)N1CCC[C@H]1C(=O)N1CCC[C@H]1C(=O)N[C@@H](CO)C(=O)N[C@@H](CCCCNC(=O)CC[C@H](NC(=O)CC[C@H](NC(=O)CCCCCCCCCCCCCCCCC(=O)O)C(=O)O)C(=O)O)C(N)=O)C(C)C [compound 64] (H-DVSSYLEEQAVREFIAWLVKGGPSSGAPPPSK([γGlu-γGlu-C18 diacid])-NH2; N-terminus assumed),IC50,[1]; [5],841 nM
same,solubility,[2]; [6],> 25 mg/mL
CC[C@H](C)[C@H](NC(=O)[C@H](Cc1ccccc1)NC(=O)[C@H](CCC(=O)O)NC(=O)[C@H](CCCNC(=N)N)NC(=O)[C@@H](NC(=O)[C@H](C)NC(=O)[C@H](CCC(N)=O)NC(=O)[C@H](CCC(=O)O)NC(=O)[C@H](CCC(=O)O)NC(=O)[C@H](CC(C)C)NC(=O)[C@H](Cc1ccc(O)cc1)NC(=O)[C@H](CO)NC(=O)[C@H](CO)NC(=O)[C@@H](NC(=O)[C@@H](N)CC(=O)O)C(C)C)C(C)C)C(=O)N[C@@H](C)C(=O)N[C@@H](Cc1c[nH]c2ccccc12)C(=O)N[C@@H](CC(C)C)C(=O)N[C@H](C(=O)N[C@@H](CCCCN)C(=O)NCC(=O)NCC(=O)N1CCC[C@H]1C(=O)N[C@@H](CO)C(=O)N[C@@H](CO)C(=O)NCC(=O)N[C@@H](C)C(=O)N1CCC[C@H]1C(=O)N1CCC[C@H]1C(=O)N1CCC[C@H]1C(=O)N[C@@H](CO)C(=O)N[C@@H](CCCCNC(=O)COCCOCCNC(=O)COCCOCCNC(=O)CC[C@H](NC(=O)CCCCCCCCCCCCCCCCC(=O)O)C(=O)O)C(N)=O)C(C)C [compound 67] (H-DVSSYLEEQAVREFIAWLVKGGPSSGAPPPSK([AEEA-AEEA-γGlu-C18 diacid])-NH2),IC50,[1]; [5],579 nM
same,solubility,[2]; [6],> 25 mg/mL
CCCCCCCCCCCCCCCC(=O)NCCCC[C@H](NC(=O)[C@H](CO)NC(=O)[C@@H]1CCCN1C(=O)[C@@H]1CCCN1C(=O)[C@@H]1CCCN1C(=O)[C@H](C)NC(=O)CNC(=O)[C@H](CO)NC(=O)[C@H](CO)NC(=O)[C@@H]1CCCN1C(=O)CNC(=O)CNC(=O)[C@H](CCCNC(=N)N)NC(=O)[C@@H](NC(=O)[C@H](CC(C)C)NC(=O)[C@H](Cc1c[nH]c2ccccc12)NC(=O)[C@H](CCC(=O)O)NC(=O)[C@@H](NC(=O)[C@H](Cc1ccccc1)NC(=O)[C@H](CCC(=O)O)NC(=O)[C@H](CCCNC(=N)N)NC(=O)[C@@H](NC(=O)[C@H](C)NC(=O)[C@H](CCC(=O)O)NC(=O)[C@H](CCC(=O)O)NC(=O)[C@H](CCC(=O)O)NC(=O)[C@H](CC(C)C)NC(=O)[C@H](Cc1ccc(O)cc1)NC(=O)[C@H](CCCNC(=N)N)NC(=O)[C@H](CO)NC(=O)[C@@H](NC(=O)[C@@H](N)CC(=O)O)C(C)C)C(C)C)[C@@H](C)CC)C(C)C)C(N)=O [compound 75] (H-DVSRYLEEEAVREFIEWLVRGGPSSGAPPPSK(Palmitoyl)-NH2; N-terminus assumed),IC50,[1]; [4],19 nM
same,solubility,[2]; [3],18.6 mg/mL
